Patent US12509446B2, “FYN and VEGFR2 kinase inhibitors” (ROTTAPHARM BIOTECH S.R.L., priority 2019, dated 2025)

Columns and labels:
Jak3 = Jak3 (Homo sapiens (Human), UniProt P52333); conditions: read-out: KINASE SELECTIVITY IC50 Jak3
Protocol: (§1) The assays were performed in Eurofins Cerep (France). The concentration range of the compound under investigation was from 10^−9 M up to 10^−5 M final concentration.

FGFR2 = FGFR2 (Homo sapiens (Human), UniProt P21802); conditions: read-out: KINASE SELECTIVITY IC50 FGFR2
Chain of FGFR2 (P21802 22-821): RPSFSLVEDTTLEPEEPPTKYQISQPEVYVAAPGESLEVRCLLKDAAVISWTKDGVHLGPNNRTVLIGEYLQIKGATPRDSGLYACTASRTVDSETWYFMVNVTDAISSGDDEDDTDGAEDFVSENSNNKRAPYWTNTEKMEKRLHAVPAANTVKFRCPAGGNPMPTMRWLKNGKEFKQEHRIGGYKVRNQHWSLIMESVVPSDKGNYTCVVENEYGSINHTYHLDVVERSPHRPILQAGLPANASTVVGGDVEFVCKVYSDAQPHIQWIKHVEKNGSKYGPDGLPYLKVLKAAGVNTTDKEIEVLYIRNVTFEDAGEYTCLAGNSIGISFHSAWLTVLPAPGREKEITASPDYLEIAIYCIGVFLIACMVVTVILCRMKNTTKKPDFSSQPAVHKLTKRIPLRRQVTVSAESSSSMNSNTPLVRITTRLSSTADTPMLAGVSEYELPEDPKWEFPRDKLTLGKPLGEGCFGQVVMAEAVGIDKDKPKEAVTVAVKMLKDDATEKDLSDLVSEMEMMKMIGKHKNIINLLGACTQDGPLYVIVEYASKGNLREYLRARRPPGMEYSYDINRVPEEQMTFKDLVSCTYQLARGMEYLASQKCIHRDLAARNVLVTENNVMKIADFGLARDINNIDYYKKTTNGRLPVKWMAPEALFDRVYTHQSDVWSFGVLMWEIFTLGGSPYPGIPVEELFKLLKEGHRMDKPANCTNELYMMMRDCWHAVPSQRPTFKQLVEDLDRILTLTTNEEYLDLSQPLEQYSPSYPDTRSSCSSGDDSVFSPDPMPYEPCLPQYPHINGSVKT
Protocol: as §1

Yes = Yes (Homo sapiens (Human), UniProt P07947); conditions: read-out: KINASE SELECTIVITY IC50 Yes
Chain of Yes (P07947 whole entry): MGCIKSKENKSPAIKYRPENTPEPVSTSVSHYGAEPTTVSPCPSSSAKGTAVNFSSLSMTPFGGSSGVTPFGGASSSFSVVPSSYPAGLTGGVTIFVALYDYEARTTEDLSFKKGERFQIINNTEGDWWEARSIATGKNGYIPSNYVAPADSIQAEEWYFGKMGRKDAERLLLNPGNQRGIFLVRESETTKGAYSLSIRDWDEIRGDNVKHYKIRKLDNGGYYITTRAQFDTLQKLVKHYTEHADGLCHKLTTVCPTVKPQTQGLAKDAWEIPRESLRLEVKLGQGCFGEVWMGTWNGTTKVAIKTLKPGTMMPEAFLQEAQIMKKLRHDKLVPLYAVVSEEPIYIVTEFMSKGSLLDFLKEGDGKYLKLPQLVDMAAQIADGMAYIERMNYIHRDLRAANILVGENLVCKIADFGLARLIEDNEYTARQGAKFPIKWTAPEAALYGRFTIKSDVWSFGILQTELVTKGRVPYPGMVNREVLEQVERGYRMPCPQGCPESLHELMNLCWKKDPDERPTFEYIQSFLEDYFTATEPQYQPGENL
Protocol: as §1

Lyn-A = Lyn-A (Homo sapiens (Human), UniProt P07948); conditions: read-out: KINASE SELECTIVITY IC50 Lyn-A
Chain of Lyn-A (P07948 whole entry): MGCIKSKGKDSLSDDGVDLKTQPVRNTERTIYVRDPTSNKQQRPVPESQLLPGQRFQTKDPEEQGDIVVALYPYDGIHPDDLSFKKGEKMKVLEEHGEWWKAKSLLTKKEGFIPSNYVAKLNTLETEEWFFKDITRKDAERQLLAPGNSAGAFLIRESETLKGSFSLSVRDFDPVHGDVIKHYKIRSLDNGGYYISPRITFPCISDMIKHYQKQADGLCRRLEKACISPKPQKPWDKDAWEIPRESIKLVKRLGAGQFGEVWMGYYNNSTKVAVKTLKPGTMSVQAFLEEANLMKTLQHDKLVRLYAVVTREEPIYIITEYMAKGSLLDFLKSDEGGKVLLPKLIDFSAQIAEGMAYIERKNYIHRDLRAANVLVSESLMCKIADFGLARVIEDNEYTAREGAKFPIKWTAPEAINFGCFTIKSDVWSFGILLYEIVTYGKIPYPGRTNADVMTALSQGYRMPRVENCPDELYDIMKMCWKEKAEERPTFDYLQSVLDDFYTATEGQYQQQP
Protocol: as §1

Src = Src (Homo sapiens (Human), UniProt P12931); conditions: read-out: KINASE SELECTIVITY IC50 Src
Chain of Src (P12931 whole entry, looked up): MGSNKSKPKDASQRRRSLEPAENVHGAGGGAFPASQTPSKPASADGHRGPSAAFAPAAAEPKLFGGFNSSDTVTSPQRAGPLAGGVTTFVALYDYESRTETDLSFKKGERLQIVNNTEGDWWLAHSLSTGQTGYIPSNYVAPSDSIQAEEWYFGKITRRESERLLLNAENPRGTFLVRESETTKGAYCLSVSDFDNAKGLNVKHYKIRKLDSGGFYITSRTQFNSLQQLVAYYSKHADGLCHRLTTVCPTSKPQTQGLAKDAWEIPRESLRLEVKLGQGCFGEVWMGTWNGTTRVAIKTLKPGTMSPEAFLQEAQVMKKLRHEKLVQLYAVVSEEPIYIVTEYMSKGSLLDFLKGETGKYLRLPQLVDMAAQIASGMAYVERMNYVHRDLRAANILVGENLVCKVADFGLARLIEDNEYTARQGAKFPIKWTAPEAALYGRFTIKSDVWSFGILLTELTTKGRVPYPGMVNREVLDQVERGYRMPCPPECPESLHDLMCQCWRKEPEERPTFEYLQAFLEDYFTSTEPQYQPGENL
Protocol: as §1

[1] = tested on: bovine nasal septum cartilage; experiment: Inhibition of cartilage degradation (GAG release) induced by IL-1α in a bovine in vitro model; assay type: cell-based
Summary of the method: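 Cartilage punches (2 mm) from an 8-month-old male bovine nasal septum were cultured 48 h, then stimulated 48 h with IL-1α […] ± compound in DMEM + 0.1% BSA. Compound doses were set from 48 h rat chondrocyte toxicity. GAG in medium and papain-digested tissue was measured by DMB absorbance at 590 nm; degradation = medium GAG/total GAG × 100.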

IL-6 = experiment: Gene expression in rat articular chondrocytes under IL-1β stimulation, IL-6; assay type: cell-based; conditions: Rattus norvegicus, Chondrocyte; 6 h incubation
[2] = Pharmacokinetics, oral route, mice; conditions: mouse, in vivo, read-out: Absolute bioavailability
[3] = target: Fyn-NanoLuc fusion protein (Homo sapiens (Human), UniProt P06241); experiment: NanoBRET intracellular target engagement of Fyn in HEK293 transfected cells; assay type: cell-based; conditions: 2 hours treatment, tracer 0.33 μM, read-out: IC50 binding value towards the Fyn-NanoLuc fusion protein
Protocol: The NanoBRET™ TE intracellular kinase assay K-4 (Promega, #N2520) was used to determine the intracellular target engagement of Fyn kinase in HEK293 cells (ATCC®, Cat. CRL-1573) transiently transfected with Fyn-NanoLuc® fusion vector (Promega, #NV1411), therefore expressing the Fyn-NanoLuc© fusion protein. The tracer was used at the final concentration of 0.33 μM, and the treatment of cells with Compounds was performed for 2 hours. Luminescence values were measured at 450 nm and 610 nm (GloMax® Discover, Promega) and raw BRET ratio values for each sample were determined. Compounds that specifically engage the intracellular target protein-NanoLuc® fusion will result in a decrease in BRET signal and in lower BRET ratio values

COX2 = experiment: Gene expression in rat articular chondrocytes under IL-1β stimulation, COX2; assay type: cell-based; conditions: Rattus norvegicus, Chondrocyte; 24 h incubation
IL-1β = experiment: Gene expression in rat articular chondrocytes under IL-1β stimulation, IL-1β; assay type: cell-based; conditions: Rattus norvegicus, Chondrocyte; 6 h incubation
Summary of the method: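 Rat chondrocytes, day 10 post-plating; switched to DMEM GlutaMAX I 0.4%; compound + cytokine 2 ng/ml; 6 h (IL-1β, ADAMTS-5) or 24 h (MMP3, MMP13); total RNA → cDNA → TaqMan qPCR, 18S-normalised.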

VEGFR = VEGFR (Homo sapiens (Human), UniProt P35968); experiment: Inhibition of VEGF-induced VEGFR (Y1175)-phosphorylation in HUVEC-C cells; assay type: cell-based; conditions: starting from the concentration of 0.01 μM; VEGF 50 ng/ml
Chain of VEGFR (P35968 20-1356): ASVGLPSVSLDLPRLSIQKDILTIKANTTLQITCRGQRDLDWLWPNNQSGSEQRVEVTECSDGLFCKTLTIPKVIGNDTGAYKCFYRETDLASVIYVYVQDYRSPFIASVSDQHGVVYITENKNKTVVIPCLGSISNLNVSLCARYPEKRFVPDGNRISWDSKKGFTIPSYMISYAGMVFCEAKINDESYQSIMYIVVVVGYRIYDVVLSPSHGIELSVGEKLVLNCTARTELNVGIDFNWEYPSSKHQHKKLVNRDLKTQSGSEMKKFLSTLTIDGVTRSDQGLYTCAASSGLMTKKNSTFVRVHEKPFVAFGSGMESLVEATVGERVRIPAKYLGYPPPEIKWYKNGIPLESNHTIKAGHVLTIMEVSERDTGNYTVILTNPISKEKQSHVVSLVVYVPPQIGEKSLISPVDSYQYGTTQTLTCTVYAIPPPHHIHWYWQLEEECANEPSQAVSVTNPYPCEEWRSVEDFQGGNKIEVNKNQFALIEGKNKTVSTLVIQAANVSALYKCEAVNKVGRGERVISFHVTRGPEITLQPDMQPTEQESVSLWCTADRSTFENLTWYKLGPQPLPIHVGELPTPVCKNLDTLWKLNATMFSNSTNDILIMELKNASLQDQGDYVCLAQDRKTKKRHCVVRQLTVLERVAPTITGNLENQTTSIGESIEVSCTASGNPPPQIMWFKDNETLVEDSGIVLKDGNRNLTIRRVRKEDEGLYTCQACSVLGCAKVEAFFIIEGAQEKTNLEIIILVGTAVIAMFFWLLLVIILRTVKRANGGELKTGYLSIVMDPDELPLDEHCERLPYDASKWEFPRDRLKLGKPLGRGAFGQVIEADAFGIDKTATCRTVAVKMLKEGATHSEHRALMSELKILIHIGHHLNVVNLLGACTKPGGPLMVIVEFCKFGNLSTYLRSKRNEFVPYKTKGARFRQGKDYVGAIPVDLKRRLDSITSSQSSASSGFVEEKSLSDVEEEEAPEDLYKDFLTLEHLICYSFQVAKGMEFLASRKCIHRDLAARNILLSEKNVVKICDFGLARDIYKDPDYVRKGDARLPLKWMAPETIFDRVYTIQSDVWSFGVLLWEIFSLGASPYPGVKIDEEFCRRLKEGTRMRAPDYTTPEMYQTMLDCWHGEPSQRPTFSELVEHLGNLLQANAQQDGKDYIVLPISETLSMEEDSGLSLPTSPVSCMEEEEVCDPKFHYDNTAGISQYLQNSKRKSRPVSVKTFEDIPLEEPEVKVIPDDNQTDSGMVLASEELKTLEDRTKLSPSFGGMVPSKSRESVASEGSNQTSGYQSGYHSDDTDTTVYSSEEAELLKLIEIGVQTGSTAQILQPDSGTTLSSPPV
Protocol: HUVEC-C cells (Human Umbilical Vein Endothelial Cells from ATCC) were plated at 6×10^4 cells/well in 24 w microplates and grown adherent in medium F12K+0.1 mg/ml Heparin+0.05 mg/ml ECGS+10% FBS at 37° C. with 5% CO2. After 24 h, medium was removed and starvation was induced overnight in medium F12K+0.1 mg/ml Heparin+0.5% FBS (medium starvation). At the end of incubation, treatment of cells was performed by medium replacement and by adding fresh medium starvation containing or not diluent (DMSO 0.1% final concentration), or test compound (range 10^−8 M-10^−5 M). After 1 hour, VEGF stimuli (50 ng/ml final concentration) was added to each sample, with the exception of “basal-no stimulus” sample; plate was then incubated for 5 min at 37° C. with 5% CO2. At the end of the incubation, the medium was removed and cellular lysates, obtained by adding M-PER lysis/Protease/Phosphatase inhibitors cocktail. Then, lysates were transferred into Eppendorf tubes, sonicated and stored at −80° C.
Lysates were analyzed by Western blot for VEGFR phosphorylation (Tyrosine 1175) and total receptor amount determination. Densitometric analysis of sample lanes were performed by ImageQuant TL software (GE Healthcare Life Sciences). Each sample value was normalized by respective actin; resulting data were used to calculate inhibitory effect of compounds with respect to stimuli control (absence of inhibitor).

[4] = Pharmacokinetics after administration into the knee joint of rats; assay type: in vivo; conditions: suspension into the knee joint

Chain of Jak3 (P52333 whole entry): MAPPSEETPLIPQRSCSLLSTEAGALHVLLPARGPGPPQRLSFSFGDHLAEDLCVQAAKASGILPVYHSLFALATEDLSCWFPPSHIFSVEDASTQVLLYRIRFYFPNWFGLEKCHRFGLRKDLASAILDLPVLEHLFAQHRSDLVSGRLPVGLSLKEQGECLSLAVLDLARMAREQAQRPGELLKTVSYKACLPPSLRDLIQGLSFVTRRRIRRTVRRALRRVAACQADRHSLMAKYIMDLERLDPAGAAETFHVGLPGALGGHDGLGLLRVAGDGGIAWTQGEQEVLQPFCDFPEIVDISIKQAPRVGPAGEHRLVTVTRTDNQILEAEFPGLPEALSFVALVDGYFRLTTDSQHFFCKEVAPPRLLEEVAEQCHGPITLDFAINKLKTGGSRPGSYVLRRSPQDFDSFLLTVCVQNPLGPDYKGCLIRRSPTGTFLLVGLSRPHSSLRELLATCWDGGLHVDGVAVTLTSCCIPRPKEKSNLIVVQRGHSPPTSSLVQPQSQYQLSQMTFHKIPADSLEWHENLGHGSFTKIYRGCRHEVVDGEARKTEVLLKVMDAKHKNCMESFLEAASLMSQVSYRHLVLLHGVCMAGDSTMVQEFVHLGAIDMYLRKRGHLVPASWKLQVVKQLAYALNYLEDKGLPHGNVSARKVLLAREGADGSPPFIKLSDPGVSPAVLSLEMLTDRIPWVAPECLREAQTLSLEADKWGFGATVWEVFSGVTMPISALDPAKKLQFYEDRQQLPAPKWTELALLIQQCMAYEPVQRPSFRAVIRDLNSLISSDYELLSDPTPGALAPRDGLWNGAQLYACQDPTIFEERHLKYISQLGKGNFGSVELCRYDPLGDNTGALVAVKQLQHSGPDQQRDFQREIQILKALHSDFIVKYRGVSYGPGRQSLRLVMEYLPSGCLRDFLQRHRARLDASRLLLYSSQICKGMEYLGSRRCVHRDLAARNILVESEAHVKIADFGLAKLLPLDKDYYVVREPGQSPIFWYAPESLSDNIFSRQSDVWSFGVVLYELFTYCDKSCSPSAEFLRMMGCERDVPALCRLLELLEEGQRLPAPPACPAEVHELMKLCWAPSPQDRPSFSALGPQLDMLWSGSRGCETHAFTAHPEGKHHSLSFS

Cc1ccc(NC(=O)c2cccc(C(F)(F)F)c2)cc1CCc1cc(Nc2cnccn2)[nH]n1 [Compound 3, N-(4-methyl-3-(2-(5-(pyrazin-2-ylamino)-1H-pyrazol-3-yl)ethyl)phenyl)-3-(trifluoromethyl)benzamide]
IC50 (Jak3): 1760 nM | IC50 (FGFR2): 3000 nM | IC50 (Yes): 17 nM | IC50 (Lyn-A): 59 nM | IC50 (Src): 370 nM | inhibition at 1 µM ([1]; Bos taurus, 1 μM, read-out: Bovine cartilage degradation induced by IL-1α, % inhibitory effect at max concentration): 100% | Inhibitory effect on the GAG release ([1]; at max concentration): 95-100% | IC50 (IL-6): 18 nM | bioavailability [2]: ~12% | IC50 [3]: 1500 nM | IC50 (COX2): 187 nM | IC50 (IL-1β): 2 nM | Inhibitory activity on VEGFR-phosphorylation at Y1175 residue (VEGFR): complete inhibitory activity | Permanence in the synovial fluid and articular tissues (cartilage and synovial fat) [4]: at least 14 days
